Results as given in patent US8871753B2, “Macrocyclic compounds and their use as kinase inhibitors” (Incyte Corporation, priority 2008, dated 2014).
Where a name gives a salt, the structure may show the parent alone.

How the values were obtained:
Format in all cases: biochemical
TYK2 = TYK2 (Homo sapiens, UniProt P29597); test: TYK2 kinase inhibition (Table A1)
[1] = target: T1, human JAK3 (a.a. 781-1124) (Homo sapiens, UniProt P52333); test: In vitro JAK kinase assay (HTRF, phosphorylation of a biotinylated peptide), JAK3
T1 construct: JAK3 (a.a. 781-1124); His tag (N); made in house; host or cells: insect cells (baculovirus)
Method: The catalytic activity of JAK1, JAK2 or JAK3 was assayed by measuring the phosphorylation of a biotinylated peptide. The phosphorylated peptide was detected by homogenous time resolved fluorescence (HTRF). […] The ATP concentration in the reactions was 90 μM for JAK1, 30 μM for JAK2 and 3 μM for JAK3. Reactions were carried out at room temperature for 1 hr and then stopped with 20 μL 45 mM EDTA, 300 nM SA-APC, 6 nM Eu-Py20 in assay buffer (Perkin Elmer, Boston, Mass.). Binding to the Europium labeled antibody took place for 40 minutes and HTRF signal was measured on a Fusion plate reader (Perkin Elmer, Boston, Mass.).
The catalytic activity of JAK1, JAK2 or JAK3 was assayed by measuring the phosphorylation of a biotinylated peptide. The phosphorylated peptide was detected by homogenous time resolved fluorescence (HTRF). […] Reactions were carried out at room temperature for 1 hr and then stopped with 20 μL 45 mM EDTA, 300 nM SA-APC, 6 nM Eu-Py20 in assay buffer (Perkin Elmer, Boston, Mass.). Binding to the Europium labeled antibody took place for 40 minutes and HTRF signal was measured on a Fusion plate reader (Perkin Elmer, Boston, Mass.).

[2] = target: T2, human JAK2 (a.a. 828-1132) (Homo sapiens, UniProt O60674); test: In vitro JAK kinase assay (HTRF, phosphorylation of a biotinylated peptide), JAK2
T2 construct: JAK2 (a.a. 828-1132); His tag (N); made in house; host or cells: insect cells (baculovirus)
How it was run: (§1)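 Kinase activity was measured as phosphorylation of a biotinylated peptide, with ATP at 90 μM for JAK1, 30 μM for JAK2 and 3 μM for JAK3. Reactions ran 1 hr at room temperature, were stopped with EDTA plus SA-APC and Eu-Py20, and were read by HTRF after 40 minutes of antibody binding.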

[3] = target: T3, human JAK1 (a.a. 837-1142) (Homo sapiens, UniProt P23458); test: In vitro JAK kinase assay (HTRF, phosphorylation of a biotinylated peptide), JAK1; settings: read-out: JAK1 IC50
T3 construct: human JAK1 (a.a. 837-1142); His tag (N); made in house; host or cells: insect cells (baculovirus)
How it was run: as §1

T2 sequence (O60674 828-1132): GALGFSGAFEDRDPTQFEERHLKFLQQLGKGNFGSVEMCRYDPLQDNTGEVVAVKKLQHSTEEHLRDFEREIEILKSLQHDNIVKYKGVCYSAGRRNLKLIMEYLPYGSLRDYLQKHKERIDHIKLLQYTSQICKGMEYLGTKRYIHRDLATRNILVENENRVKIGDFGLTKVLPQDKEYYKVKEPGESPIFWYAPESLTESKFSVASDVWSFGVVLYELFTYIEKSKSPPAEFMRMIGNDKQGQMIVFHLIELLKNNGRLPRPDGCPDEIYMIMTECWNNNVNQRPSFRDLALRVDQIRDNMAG
Sequence of TYK2 (P29597 whole entry): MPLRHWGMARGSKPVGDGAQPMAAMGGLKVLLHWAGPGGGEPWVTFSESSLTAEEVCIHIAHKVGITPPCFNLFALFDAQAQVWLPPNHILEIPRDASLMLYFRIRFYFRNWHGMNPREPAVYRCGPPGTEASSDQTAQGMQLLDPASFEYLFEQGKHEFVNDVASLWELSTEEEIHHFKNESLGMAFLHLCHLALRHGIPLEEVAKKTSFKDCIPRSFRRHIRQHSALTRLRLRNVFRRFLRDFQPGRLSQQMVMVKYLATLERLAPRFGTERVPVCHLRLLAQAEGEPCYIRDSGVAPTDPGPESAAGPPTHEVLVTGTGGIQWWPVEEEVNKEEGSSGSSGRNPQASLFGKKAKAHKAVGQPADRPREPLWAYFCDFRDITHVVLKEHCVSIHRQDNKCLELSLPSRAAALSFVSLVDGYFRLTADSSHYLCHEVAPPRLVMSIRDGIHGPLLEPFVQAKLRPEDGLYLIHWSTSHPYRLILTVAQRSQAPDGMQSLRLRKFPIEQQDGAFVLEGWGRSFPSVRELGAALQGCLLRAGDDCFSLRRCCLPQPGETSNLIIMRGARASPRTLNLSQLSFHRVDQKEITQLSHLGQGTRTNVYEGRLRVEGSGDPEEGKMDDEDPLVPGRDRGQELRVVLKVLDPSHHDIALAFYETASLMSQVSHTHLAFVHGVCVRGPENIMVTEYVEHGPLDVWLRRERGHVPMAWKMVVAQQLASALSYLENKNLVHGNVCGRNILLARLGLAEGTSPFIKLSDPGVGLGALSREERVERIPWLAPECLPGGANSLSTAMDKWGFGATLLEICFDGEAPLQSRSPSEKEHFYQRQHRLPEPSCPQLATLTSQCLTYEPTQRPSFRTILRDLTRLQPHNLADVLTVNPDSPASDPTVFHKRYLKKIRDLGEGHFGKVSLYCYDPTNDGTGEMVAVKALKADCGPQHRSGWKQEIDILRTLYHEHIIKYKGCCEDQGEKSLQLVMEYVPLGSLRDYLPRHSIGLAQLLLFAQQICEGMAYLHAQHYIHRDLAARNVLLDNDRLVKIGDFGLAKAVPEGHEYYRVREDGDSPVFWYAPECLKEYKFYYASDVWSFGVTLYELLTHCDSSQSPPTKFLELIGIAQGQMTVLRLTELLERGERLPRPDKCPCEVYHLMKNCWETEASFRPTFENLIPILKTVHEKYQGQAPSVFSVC
T3 sequence (P23458 849-1154): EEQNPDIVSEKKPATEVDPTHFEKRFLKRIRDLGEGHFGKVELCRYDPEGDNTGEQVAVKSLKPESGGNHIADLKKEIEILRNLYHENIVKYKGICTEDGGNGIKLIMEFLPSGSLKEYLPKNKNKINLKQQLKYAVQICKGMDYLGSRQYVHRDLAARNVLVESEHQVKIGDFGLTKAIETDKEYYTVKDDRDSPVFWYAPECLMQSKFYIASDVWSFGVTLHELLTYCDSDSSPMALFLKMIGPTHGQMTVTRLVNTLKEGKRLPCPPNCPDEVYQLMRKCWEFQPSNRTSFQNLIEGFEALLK
T1 sequence (P52333 781-1124): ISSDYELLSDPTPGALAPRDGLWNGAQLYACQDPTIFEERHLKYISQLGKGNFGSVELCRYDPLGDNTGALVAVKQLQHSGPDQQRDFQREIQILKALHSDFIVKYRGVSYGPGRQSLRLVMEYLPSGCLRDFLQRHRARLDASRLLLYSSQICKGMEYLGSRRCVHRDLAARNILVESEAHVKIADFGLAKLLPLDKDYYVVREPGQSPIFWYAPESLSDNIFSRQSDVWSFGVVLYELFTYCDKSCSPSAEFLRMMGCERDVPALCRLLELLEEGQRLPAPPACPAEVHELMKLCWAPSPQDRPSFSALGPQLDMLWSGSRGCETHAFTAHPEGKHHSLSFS

An IC50 (TYK2) of 136 nM, an IC50 [1] of 990 nM and an IC50 [2] of 56 nM were found for `Cc1cc(CC(=O)Nc2ccc3cc2CCc2cccc(c2)Nc2ncc(Cl)c(n2)N3)on1` [Example C30, N-[6-Chloro-2,4,8,22-tetraazatetracyclo[14.3.1.1(3,7).1(9,13)]docosa-1(20),3(22),4,6,9(21),10,12,16,18-nonaen-12-yl]-2-(3-methylisoxazol-5-yl)acetamide trifluoroacetate] in this work. It also gave an IC50 [3] of 31 nM.
An IC50 (TYK2) of 481 nM, an IC50 [1] of 404 nM and an IC50 [2] of 24 nM were found for `O=C(Cc1nnn[nH]1)Nc1ccc2cc1CCc1cccc(c1)Nc1ncc(Cl)c(n1)N2` [Example C31, N-[6-Chloro-2,4,8,22-tetraazatetracyclo[14.3.1.1(3,7).1(9,13)]docosa-1(20),3(22),4,6,9(21),10,12,16,18-nonaen-12-yl]-2-(1H-tetrazol-5-yl)acetamide trifluoroacetate] in this work. It also gave an IC50 [3] of 140 nM.
An IC50 (TYK2) of 44 nM, an IC50 [1] of 658 nM and an IC50 [2] of 20 nM were found for `O=C(Cc1ccsc1)Nc1ccc2cc1CCc1cccc(c1)Nc1ncc(Cl)c(n1)N2` [Example C32, N-[6-Chloro-2,4,8,22-tetraazatetracyclo[14.3.1.1(3,7).1(9,13)]docosa-1(20),3(22),4,6,9(21),10,12,16,18-nonaen-12-yl]-2-(3-thienyl)acetamide trifluoroacetate] in this work. For the same compound, the IC50 [3] was 34 nM.
An IC50 (TYK2) of 217 nM, an IC50 [1] of 733 nM and an IC50 [2] of 35 nM were found for `O=C(Cc1c[nH]cn1)Nc1ccc2cc1CCc1cccc(c1)Nc1ncc(Cl)c(n1)N2` [Example C33, N-[6-Chloro-2,4,8,22-tetraazatetracyclo[14.3.1.1(3,7).1(9,13)]docosa-1(20),3(22),4,6,9(21),10,12,16,18-nonaen-12-yl]-2-(1H-imidazol-4-yl)acetamide bis(trifluoroacetate)] in this work. For the same compound, the IC50 [3] was 17 nM.
An IC50 (TYK2) of 775 nM, an IC50 [1] of 4000 nM and an IC50 [2] of 178 nM were found for `Cc1[nH]c2ccccc2c1CC(=O)Nc1ccc2cc1CCc1cccc(c1)Nc1ncc(Cl)c(n1)N2` [Example C34, N-[6-Chloro-2,4,8,22-tetraazatetracyclo[14.3.1.1(3,7).1(9,13)]docosa-1(20),3(22),4,6,9(21),10,12,16,18-nonaen-12-yl]-2-(2-methyl-1H-indol-3-yl)acetamide trifluoroacetate] in this work. It also gave an IC50 [3] of 265 nM.
An IC50 (TYK2) of 549 nM, an IC50 [1] greater than 10000 nM and an IC50 [2] of 203 nM were found for `O=C(Cc1csc2ccccc12)Nc1ccc2cc1CCc1cccc(c1)Nc1ncc(Cl)c(n1)N2` [Example C35, 2-(1-Benzothien-3-yl)-N-[6-chloro-2,4,8,22-tetraazatetracyclo[14.3.1.1(3,7).1(9,13)]docosa-1(20),3(22),4,6,9(21),10,12,16,18-nonaen-12-yl]acetamide trifluoroacetate] in this work. It also gave an IC50 [3] of 232 nM.
An IC50 (TYK2) of 103 nM, an IC50 [1] of 663 nM and an IC50 [2] of 42 nM were found for `O=C(Cc1ccco1)Nc1ccc2cc1CCc1cccc(c1)Nc1ncc(Cl)c(n1)N2` [Example C36, N-[6-Chloro-2,4,8,22-tetraazatetracyclo[14.3.1.1(3,7).1(9,13)]docosa-1(20),3(22),4,6,9(21),10,12,16,18-nonaen-12-yl]-2-(2-furyl)acetamide trifluoroacetate] in this work. It also gave an IC50 [3] of 33 nM.
An IC50 (TYK2) of 581 nM, an IC50 [1] of 2620 nM and an IC50 [2] of 276 nM were found for `Cn1cc(CC(=O)Nc2ccc3cc2CCc2cccc(c2)Nc2ncc(Cl)c(n2)N3)c2ccccc21` [Example C37, N-[6-Chloro-2,4,8,22-tetraazatetracyclo[14.3.1.1(3,7).1(9,13)]docosa-1(20),3(22),4,6,9(21),10,12,16,18-nonaen-12-yl]-2-(1-methyl-1H-indol-3-yl)acetamide trifluoroacetate] in this work. It also gave an IC50 [3] of 496 nM.
An IC50 (TYK2) of 39 nM, an IC50 [1] of 1070 nM and an IC50 [2] of 47 nM were found for `Cc1nc(CC(=O)Nc2ccc3cc2CCc2cccc(c2)Nc2ncc(Cl)c(n2)N3)cs1` [Example C38, N-[6-Chloro-2,4,8,22-tetraazatetracyclo[14.3.1.1(3,7).1(9,13)]docosa-1(20),3(22),4,6,9(21),10,12,16,18-nonaen-12-yl]-2-(2-methyl-1,3-thiazol-4-yl)acetamide trifluoroacetate] in this work. For the same compound, the IC50 [3] was 37 nM.
An IC50 (TYK2) of 195 nM, an IC50 [1] of 1220 nM and an IC50 [2] of 29 nM were found for `O=C(Cc1cccnc1)Nc1ccc2cc1CCc1cccc(c1)Nc1ncc(Cl)c(n1)N2` [Example C39, N-[6-Chloro-2,4,8,22-tetraazatetracyclo[14.3.1.1(3,7).1(9,13)]docosa-1(20),3(22),4,6,9(21),10,12,16,18-nonaen-12-yl]-2-pyridin-3-ylacetamide bis(trifluoroacetate)] in this work. For the same compound, the IC50 [3] was 54 nM.
An IC50 (TYK2) of 291 nM, an IC50 [1] of 804 nM and an IC50 [2] of 56 nM were found for `O=C(Cc1ccncc1)Nc1ccc2cc1CCc1cccc(c1)Nc1ncc(Cl)c(n1)N2` [Example C40, N-[6-Chloro-2,4,8,22-tetraazatetracyclo[14.3.1.1(3,7).1(9,13)]docosa-1(20),3(22),4,6,9(21),10,12,16,18-nonaen-12-yl]-2-pyridin-4-ylacetamide bis(trifluoroacetate)] in this work. The IC50 [3] was 62 nM.
An IC50 (TYK2) of 246 nM, an IC50 [1] of 1170 nM and an IC50 [2] of 65 nM were found for `O=C(Cc1ccccn1)Nc1ccc2cc1CCc1cccc(c1)Nc1ncc(Cl)c(n1)N2` [Example C41, N-[6-Chloro-2,4,8,22-tetraazatetracyclo[14.3.1.1(3,7).1(9,13)]docosa-1(20),3(22),4,6,9(21),10,12,16,18-nonaen-12-yl]-2-pyridin-2-ylacetamide bis(trifluoroacetate)] in this work. For the same compound, the IC50 [3] was 112 nM.
An IC50 (TYK2) of 96 nM, an IC50 [1] of 346 nM and an IC50 [2] of 23 nM were found for `O=C(Cc1cccs1)Nc1ccc2cc1CCc1cccc(c1)Nc1ncc(Cl)c(n1)N2` [Example C42, N-[6-Chloro-2,4,8,22-tetraazatetracyclo[14.3.1.1(3,7).1(9,13)]docosa-1(20),3(22),4,6,9(21),10,12,16,18-nonaen-12-yl]-2-(2-thienyl)acetamide trifluoroacetate] in this work. For the same compound, the IC50 [3] was 37 nM.
An IC50 (TYK2) of 88 nM, an IC50 [1] of 1140 nM and an IC50 [2] of 31 nM were found for `Cc1nc(C)c(CC(=O)Nc2ccc3cc2CCc2cccc(c2)Nc2ncc(Cl)c(n2)N3)s1` [Example C43, N-[6-Chloro-2,4,8,22-tetraazatetracyclo[14.3.1.1(3,7).1(9,13)]docosa-1(20),3(22),4,6,9(21),10,12,16,18-nonaen-12-yl]-2-(2,4-dimethyl-1,3-thiazol-5-yl)acetamide trifluoroacetate] in this work. It also gave an IC50 [3] of 22 nM.
An IC50 (TYK2) of 478 nM, an IC50 [1] of 779 nM and an IC50 [2] of 53 nM were found for `O=C(Cc1nc2ccccc2[nH]1)Nc1ccc2cc1CCc1cccc(c1)Nc1ncc(Cl)c(n1)N2` [Example C44, 2-(1H-Benzimidazol-2-yl)-N-[6-chloro-2,4,8,22-tetraazatetracyclo[14.3.1.1(3,7).1(9,13)]docosa-1(20),3(22),4,6,9(21),10,12,16,18-nonaen-12-yl]acetamide bis(trifluoroacetate)] in this work. The IC50 [3] was 70 nM.
An IC50 (TYK2) of 544 nM, an IC50 [1] greater than 10000 nM and an IC50 [2] of 321 nM were found for `O=C(Cc1noc2ccccc12)Nc1ccc2cc1CCc1cccc(c1)Nc1ncc(Cl)c(n1)N2` [Example C45, 2-(1,2-Benzisoxazol-3-yl)-N-[6-chloro-2,4,8,22-tetraazatetracyclo[14.3.1.1(3,7).1(9,13)]docosa-1(20),3(22),4,6,9(21),10,12,16,18-nonaen-12-yl]acetamide trifluoroacetate] in this work. For the same compound, the IC50 [3] was 165 nM.
An IC50 (TYK2) of 165 nM, an IC50 [1] of 1490 nM and an IC50 [2] of 170 nM were found for `Cc1nc(CC(=O)Nc2ccc3cc2CCc2cccc(c2)Nc2ncc(Cl)c(n2)N3)c(C)s1` [Example C46, N-[6-Chloro-2,4,8,22-tetraazatetracyclo[14.3.1.1(3,7).1(9,13)]docosa-1(20),3(22),4,6,9(21),10,12,16,18-nonaen-12-yl]-2-(2,5-dimethyl-1,3-thiazol-4-yl)acetamide trifluoroacetate] in this work. It also gave an IC50 [3] of 79 nM.
An IC50 (TYK2) of 300 nM, an IC50 [1] of 1140 nM and an IC50 [2] of 134 nM were found for `O=C(Cc1coc2ccccc12)Nc1ccc2cc1CCc1cccc(c1)Nc1ncc(Cl)c(n1)N2` [Example C47, 2-(1-Benzofuran-3-yl)-N-[6-chloro-2,4,8,22-tetraazatetracyclo[14.3.1.1(3,7).1(9,13)]docosa-1(20),3(22),4,6,9(21),10,12,16,18-nonaen-12-yl]acetamide trifluoroacetate] in this work. It also gave an IC50 [3] of 67 nM.
